Earlier results on one molecule are cited in patent US20140348873A1, “Urea-Silicone Gel for Hyperkeratosis Treatment” (PROFESSIONAL COMPOUNDING CENTERS OF AMERICA, priority 2013, published 2014).

For the series the following is noted: general background statement; no experiment described.

For the molecule `NC(N)=O` [Urea], the “water content of the skin, level reached with urea” value was 97.8%.
